Measurements from patent publication US8507541B2, “N-hydroxyamidinoheterocycles as modulators of indoleamine 2,3-dioxygenase” (Incyte Corporation, priority 2006, dated 2013).

Columns and labels:
P815 tumor = conditions: pre-immunized immune-competent mice, P815 (Uyttenhove et al); cited from earlier work
LLC tumors = LLC tumors in C57Bl/6 mice, versus placebo (Friberg et al); cited from earlier work
[1] = molecular target: T1, Human idoleamine 2,3-dioxygenase (IDO) (Homo sapiens, UniProt P14902); test: Human indoleamine 2,3-dioxygenase (IDO) enzyme assay; format: biochemical; conditions: 95 nM IDO, 2 mM D-Trp, pH 6.5, room temperature, absorbance at 321 nm
T1 construct: His tag (N); made in house; host or cells: E. coli
T1 sequence (P14902 whole entry): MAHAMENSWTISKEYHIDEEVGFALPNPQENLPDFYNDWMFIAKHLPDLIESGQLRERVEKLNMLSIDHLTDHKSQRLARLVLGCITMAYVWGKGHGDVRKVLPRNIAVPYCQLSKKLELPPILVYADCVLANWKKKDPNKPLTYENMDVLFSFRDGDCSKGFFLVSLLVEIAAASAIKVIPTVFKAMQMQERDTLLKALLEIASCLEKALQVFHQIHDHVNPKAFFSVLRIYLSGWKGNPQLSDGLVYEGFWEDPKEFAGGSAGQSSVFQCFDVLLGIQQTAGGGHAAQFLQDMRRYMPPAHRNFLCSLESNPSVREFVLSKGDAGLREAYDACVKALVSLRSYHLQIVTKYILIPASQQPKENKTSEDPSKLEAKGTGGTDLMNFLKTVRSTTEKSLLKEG
Method: Human idoleamine 2,3-dioxygenase (IDO) with an N-terminal His tag was expressed in E. coli and purified to homogeneity. IDO catalyzes the oxidative cleavage of the pyrrole ring of the indole nucleus of tryptophan to yield N′-formylkynurenine. The assays were performed at room temperature as described in the literature using 95 nM IDO and 2 mM D-Trp in the presence of 20 mM ascorbate, 5 μM methylene blue and 0.2 mg/mL catalase in 50 mM potassium phosphate buffer (pH 6.5). The initial reaction rates were recorded by continuously following the absorbance increase at 321 nm due to the formation of N′-formylkynurenine. […] The symbol “+” indicates IC50<1000 […].

Compound | growth of tumors (P815 tumor) | formation of tumors (LLC tumors) | IC50 [1]
Cn1cc(C[C@H](N)C(=O)O)c2ccccc21 [Example 1-MT, 1-methyl-tryptophan] | inhibited | markedly delayed | –
ON=C(Nc1ccc(F)c(Cl)c1)c1cc(OCCCN2CCCC2)no1 [Example 2, N-(3-Chloro-4-fluorophenyl)-N′-hydroxy-3-(3-pyrrolidin-1-ylpropoxy)isoxazole-5-carboximidamide] | – | – | > 10 µM
ON=C(Nc1ccc(F)c(Cl)c1)c1cc(N2CCOCC2)no1 [Example 3, N-(3-Chloro-4-fluorophenyl)-N′-hydroxy-3-morpholin-ylisoxazole-5-carboximidamide] | – | – | > 10 µM
CC(=O)Nc1cc(C(=NO)NCc2cc(Cl)ccc2C)on1 [Example 22, N-[5-[(5-chloro-2-methylbenzyl)amino](hydroxyimino)methyl]isoxazol-3-ylacetamide] | – | – | > 10 µM
